Reference: US20260193272A1, “SELENIUM CONTAINING HETEROCYCLE COMPOUNDS AND USE THEREOF” (HELIOS HUAMING BIOPHARMA CO., LTD., priority 2022, published 2026)

Target: T1, PAD4 enzyme (Homo sapiens, UniProt Q9UM07)
T1 construct: PAD4 enzyme was diluted to 30 nM in Assay Buffer
Test: In-vitro measurement for enzymatic PAD4 citrullination inhibition activity (ammonia release)
Assay type: biochemical
Details: read-out: IC50 of inhibition enzymatic activity of PAD4 (Colorimetric assays, Nature Chemical Biology, 2015, 11: 189-191)
Description: Citrullination was detected via ammonia release based on published methodology (Nature Chemical Biology, 2015, 11: 189-191).
PAD4 enzyme was diluted to 30 nM in Assay Buffer (100 mM HEPES, 50 mM NaCl, 2 mM DTT, 0.6 mg/ml BSA, pH 8) and added to wells containing various concentrations of compound or DMSO vehicle (0.8% final) in a high-volume black 96-well plate (Greiner). Following a 60-min preincubation at 27° C., the reaction was initiated by the addition of substrate (3 mM BAEE in 100 mM HEPES, 50 mM NaCl, […] CaCl2, 2 mM DTT, pH 8). The reaction was stopped after 90 min by the addition of stop/detection buffer containing 50 mM EDTA, 2.6 mM o-phthalaldehyde and 2.6 mM DTT. Assays were incubated at 27° C. for 120 min before measuring fluorescence (λex 410/λem 476) on an Envision plate reader (PerkinElmer). After which IC50 values were calculated using GraphPad Prism 8.0.

T1 sequence (Q9UM07 whole entry): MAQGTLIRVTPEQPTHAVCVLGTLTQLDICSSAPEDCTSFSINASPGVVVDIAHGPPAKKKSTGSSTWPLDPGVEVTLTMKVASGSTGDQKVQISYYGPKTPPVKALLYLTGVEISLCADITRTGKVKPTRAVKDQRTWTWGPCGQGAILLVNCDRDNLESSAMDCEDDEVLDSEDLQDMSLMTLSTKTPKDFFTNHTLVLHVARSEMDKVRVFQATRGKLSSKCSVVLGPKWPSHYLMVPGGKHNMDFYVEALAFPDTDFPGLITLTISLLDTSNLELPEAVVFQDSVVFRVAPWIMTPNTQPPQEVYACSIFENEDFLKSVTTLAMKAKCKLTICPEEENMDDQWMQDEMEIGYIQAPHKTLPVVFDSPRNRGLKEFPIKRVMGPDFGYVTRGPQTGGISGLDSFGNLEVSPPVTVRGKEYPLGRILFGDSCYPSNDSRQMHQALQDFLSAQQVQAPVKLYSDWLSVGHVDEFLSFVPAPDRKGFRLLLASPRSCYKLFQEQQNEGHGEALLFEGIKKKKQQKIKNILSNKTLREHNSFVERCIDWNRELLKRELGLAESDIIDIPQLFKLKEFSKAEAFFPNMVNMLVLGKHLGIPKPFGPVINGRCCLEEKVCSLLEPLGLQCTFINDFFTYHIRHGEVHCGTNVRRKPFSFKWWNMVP

With `COc1cc(C(=O)N2C[C@H](N)C[C@@H](F)C2)cc2nc(-c3cc4[se]c(-c5ccncc5)nc4n3CC3CC3)n(C)c12` [HH-42] the IC50 was 0.1 to 0.5 µM.
Molecule `COc1cc(C(=O)N2C[C@H](N)CC[C@@H]2C)cc2nc(-c3cc4cc[se]c4n3CC3CC3)n(C)c12` [HH-65] has an IC50 of 0.05 to 0.1 µM.
In the case of `COc1cc(C(=O)N2C[C@H](N)CC[C@@H]2C)cc2nc(-c3cc4[se]c(C5CC5)nc4n3CC3CC3)n(C)c12` [HH-6], the IC50 is reported as ≤ 0.05 µM.
Work on `COc1cc(C(=O)N2C[C@H]3CC[C@@H]2[C@@H]3N)cc2nc(-c3cc4[se]c(-c5ccccn5)cc4n3CC3CC3)n(C)c12` [HH-61] yielded an IC50 of 0.1 to 0.5 µM.
`COc1cc(C(=O)N2C[C@H](N)C[C@@H](F)C2)cc2nc(-c3cc4[se]c(C5CC5)nc4n3CC3CC3)n(C)c12` [HH-5] was tested, and the IC50 was ≤ 0.05 µM.
Work on `COc1cc(C(=O)N2CC[C@@H](O)[C@@H](N)C2)cc2nc(-c3cc4[se]c(C)nc4n3CC3CC3)n(C)c12` [HH-11] yielded an IC50 of 0.1 to 0.5 µM.
Work on `COc1cc(C(=O)N2C[C@H]3CC[C@@H]2[C@@H]3N)cc2nc(-c3cc4[se]c(C5CCNCC5)nc4n3CC3CC3)n(C)c12` [HH-37] yielded an IC50 of 0.1 to 0.5 µM.
In the case of `COc1cc(C(=O)N2CC[C@@H](F)[C@@H](N)C2)cc2nc(-c3cc4[se]c(C)nc4n3CC3CC3)n(C)c12` [HH-14], the IC50 is reported as 0.1 to 0.5 µM.
`COc1cc(C(=O)N2C[C@H]3CC[C@@H]2[C@@H]3N)cc2nc(-c3cc4[se]c(-c5ccccn5)nc4n3CC3CC3)n(C)c12` [HH-44] showed an IC50 of 0.1 to 0.5 µM.
In the case of `CCn1c(-c2nc3cc(C(=O)N4C[C@H](N)CC[C@@H]4C)cc(OC)c3n2C)cc2[se]c(C)nc21` [HH-19], the IC50 is reported as 0.1 to 0.5 µM.
`COc1cc(C(=O)N2C[C@H](N)CC[C@@H]2C)cc2nc(-c3cc4[se]c(-c5ccc(C)cc5)nc4n3CC3CC3)n(C)c12` [HH-45] was tested, and the IC50 was > 0.5 µM.
`COc1ccccc1-c1nc2c(cc(-c3nc4cc(C(=O)N5C[C@H](N)CC[C@@H]5C)cc(OC)c4n3C)n2CC2CC2)[se]1` [HH-38] gave an IC50 of 0.1 to 0.5 µM.
`COc1cc(C(=O)N2C[C@H](N)CC[C@@H]2C)cc2nc(-c3cc4[se]c(C)nc4n3Cc3ccoc3)n(C)c12` [HH-32] was tested, and the IC50 was 0.1 to 0.5 µM.
Work on `COc1cc(C(=O)N2C[C@H](N)CC[C@@H]2C)cc2nc(-c3cc4[se]c(C)nc4n3Cc3ccccn3)n(C)c12` [HH-31] yielded an IC50 of 0.1 to 0.5 µM.
